Results published in ChEMBL document CHEMBL1125669, “Synthesis of potential dual-acting radiation sensitizer antineoplastic agents: 2,2-dimethylphosphoraziridines containing 2-nitroimidazoles or other electron-affinic moieties” (1991).

Key:
Assay type in all cases: functional
[1] = tested on: Mus musculus; experiment: In vivo antitumor activity against P-388 leukemia in CDF1 mice at 128 mg or 335 umol by ip administration expressed as average wt. change determined between day 0 and day 6 of experiment
[2] = tested on: Mus musculus; experiment: In vivo antitumor activity against P-388 leukemia in CDF1 mice at 32 mg or 84 umol by ip administration expressed as average wt. change determined between day 0 and day 6 of experiment
[3] = tested on: Mus musculus; experiment: In vivo antitumor activity against P-388 leukemia in CDF1 mice at 8 mg or 21 umol by ip administration expressed as average wt. change determined between day 0 and day 6 of experiment
[4] = tested on: Mus musculus; experiment: In vivo antitumor activity against P-388 leukemia in CDF1 mice at 256 mg or 670 umol by ip administration expressed as average wt. change determined between day 0 and day 6 of experiment
[5] = tested on: Mus musculus; experiment: In vivo antitumor activity against P-388 leukemia in CDF1 mice at 64 mg or 167 umol by ip administration expressed as average wt. change determined between day 0 and day 6 of experiment
[6] = tested on: Mus musculus; experiment: In vivo antitumor activity against P-388 leukemia in CDF1 mice at 16 mg or 42 umol by ip administration expressed as average wt. change determined between day 0 and day 6 of experiment
[7] = tested on: Mus musculus; experiment: In vivo antitumor activity against P-388 leukemia in CDF1 mice at 128 mg or 335 umol by ip administration expressed as median survival time of drug treated mice/median survival time of control mice x100
[8] = tested on: Mus musculus; experiment: In vivo antitumor activity against P-388 leukemia in CDF1 mice at 16 mg or 42 umol by ip administration expressed as median survival time of drug treated mice/median survival time of control mice x100
[9] = tested on: Mus musculus; experiment: In vivo antitumor activity against P-388 leukemia in CDF1 mice at 64 mg or 167 umol by ip administration expressed as median survival time of drug treated mice/median survival time of control mice x100
[10] = tested on: Mus musculus; experiment: In vivo antitumor activity against P-388 leukemia in CDF1 mice at 8 mg or 21 umol by ip administration expressed as median survival time of drug treated mice/median survival time of control mice x100
[11] = tested on: Mus musculus; experiment: In vivo antitumor activity against P-388 leukemia in CDF1 mice at 256 mg or 670 umol by ip administration expressed as median survival time of drug treated mice/median survival time of control mice x100
[12] = tested on: Mus musculus; experiment: In vivo antitumor activity against P-388 leukemia in CDF1 mice at 32 mg or 84 umol by ip administration expressed as median survival time of drug treated mice/median survival time of control mice x100
[13] = tested on: Mus musculus; experiment: In vivo antitumor activity against P-388 leukemia in CDF1 mice at 128 mg or 330 umol by ip administration expressed as average wt. change determined between day 0 and day 6 of experiment
[14] = tested on: Mus musculus; experiment: In vivo antitumor activity against P-388 leukemia in CDF1 mice at 16 mg or 41 umol by ip administration expressed as average wt. change determined between day 0 and day 6 of experiment
[15] = tested on: Mus musculus; experiment: In vivo antitumor activity against P-388 leukemia in CDF1 mice at 32 mg or 83 umol by ip administration expressed as average wt. change determined between day 0 and day 6 of experiment
[16] = tested on: Mus musculus; experiment: In vivo antitumor activity against P-388 leukemia in CDF1 mice at 64 mg or 165 umol by ip administration expressed as average wt. change determined between day 0 and day 6 of experiment
[17] = tested on: Mus musculus; experiment: In vivo antitumor activity against P-388 leukemia in CDF1 mice at 256 mg or 661 umol by ip administration expressed as average wt. change determined between day 0 and day 6 of experiment
[18] = tested on: Mus musculus; experiment: In vivo antitumor activity against P-388 leukemia in CDF1 mice at 128 mg or 330 umol by ip administration expressed as median survival time of drug treated mice/median survival time of control mice x100
[19] = tested on: Mus musculus; experiment: In vivo antitumor activity against P-388 leukemia in CDF1 mice at 16 mg or 41 umol by ip administration expressed as median survival time of drug treated mice/median survival time of control mice x100
[20] = tested on: Mus musculus; experiment: In vivo antitumor activity against P-388 leukemia in CDF1 mice at 256 mg or 661 umol by ip administration expressed as median survival time of drug treated mice/median survival time of control mice x100
[21] = tested on: Mus musculus; experiment: In vivo antitumor activity against P-388 leukemia in CDF1 mice at 32 mg or 83 umol by ip administration expressed as median survival time of drug treated mice/median survival time of control mice x100
[22] = tested on: Mus musculus; experiment: In vivo antitumor activity against P-388 leukemia in CDF1 mice at 64 mg or 165 umol by ip administration expressed as median survival time of drug treated mice/median survival time of control mice x100
[23] = tested on: Mus musculus; experiment: In vivo antitumor activity against P-388 leukemia in CDF1 mice at 100 mg or 363 umol by ip administration expressed as average wt. change determined between day 0 and day 6 of experiment
[24] = tested on: Mus musculus; experiment: In vivo antitumor activity against P-388 leukemia in CDF1 mice at 400 mg or 1453 umol by ip administration expressed as average wt. change determined between day 0 and day 6 of experiment
[25] = tested on: Mus musculus; experiment: In vivo antitumor activity against P-388 leukemia in CDF1 mice at 50 mg or 182 umol by ip administration expressed as average wt. change determined between day 0 and day 6 of experiment
[26] = tested on: Mus musculus; experiment: In vivo antitumor activity against P-388 leukemia in CDF1 mice at 200 mg or 727 umol by ip administration expressed as average wt. change determined between day 0 and day 6 of experiment
[27] = tested on: Mus musculus; experiment: In vivo antitumor activity against P-388 leukemia in CDF1 mice at 100 mg or 363 umol by ip administration expressed as median survival time of drug treated mice/median survival time of control mice x100
[28] = tested on: Mus musculus; experiment: In vivo antitumor activity against P-388 leukemia in CDF1 mice at 200 mg or 727 umol by ip administration expressed as median survival time of drug treated mice/median survival time of control mice x100
[29] = tested on: Mus musculus; experiment: In vivo antitumor activity against P-388 leukemia in CDF1 mice at 400 mg or 1453 umol by ip administration expressed as median survival time of drug treated mice/median survival time of control mice x100
[30] = tested on: Mus musculus; experiment: In vivo antitumor activity against P-388 leukemia in CDF1 mice at 50 mg or 182 umol by ip administration expressed as median survival time of drug treated mice/median survival time of control mice x100

Q: Which Average weight change [1] does the source give for CC1(C)CN1P(=O)(NC(=O)OCc1ccc([N+](=O)[O-])cc1)N1CC1(C)C (configuration not stated) here?
A: The Average weight change was 2 g.

Q: What about the Average weight change [2] of the same compound?
A: Its Average weight change is 2.1 g.

Q: What about the Average weight change [3] of the same compound?
A: Its Average weight change is 1.4 g.

Q: And the Average weight change [4]?
A: Its Average weight change is 0.6 g.

Q: What about the Average weight change [5] of the same compound?
A: Its Average weight change is 1.4 g.

Q: And the Average weight change [6]?
A: The Average weight change was 1.2 g.

Q: And the T/C [7]?
A: Its T/C is 113%.

Q: What about the T/C [8] of the same compound?
A: The T/C was 113%.

Q: What about the T/C [9] of the same compound?
A: The T/C was 113%.

Q: And the T/C [10]?
A: The T/C was 113%.

Q: What about the T/C [11] of the same compound?
A: Its T/C is 119%.

Q: And the T/C [12]?
A: Its T/C is 106%.

Q: How did the Average weight change [13] turn out when COCC(Cn1ccnc1[N+](=O)[O-])OP(=O)(N1CC1(C)C)N1CC1(C)C (configuration not stated) was run?
A: Its Average weight change is -0.3 g.

Q: And the Average weight change [14]?
A: Its Average weight change is 0.8 g.

Q: What about the Average weight change [15] of the same compound?
A: Its Average weight change is 0.4 g.

Q: What about the Average weight change [16] of the same compound?
A: Its Average weight change is 0.2 g.

Q: What about the Average weight change [3] of the same compound?
A: Its Average weight change is 1.2 g.

Q: What about the Average weight change [17] of the same compound?
A: Its Average weight change is -1.5 g.

Q: What about the T/C [18] of the same compound?
A: The T/C was 150%.

Q: What about the T/C [19] of the same compound?
A: The T/C was 100%.

Q: What about the T/C [10] of the same compound?
A: Its T/C is 106%.

Q: What about the T/C [20] of the same compound?
A: The T/C was 200%.

Q: What about the T/C [21] of the same compound?
A: Its T/C is 122%.

Q: And the T/C [22]?
A: The T/C was 133%.

Q: For CCOC(=O)NP(=O)(N1CC1(C)C)N1CC1(C)C (configuration not stated) [METUREDEPA], which Average weight change [23] is on record?
A: Its Average weight change is -0.4 g.

Q: What about the Average weight change [24] of the same compound?
A: Its Average weight change is -1.3 g.

Q: And the Average weight change [25]?
A: The Average weight change was -0.7 g.

Q: And the Average weight change [26]?
A: Its Average weight change is -0.2 g.

Q: And the T/C [27]?
A: The T/C was 181%.

Q: What about the T/C [28] of the same compound?
A: Its T/C is 231%.

Q: What about the T/C [29] of the same compound?
A: The T/C was 244%.

Q: What about the T/C [30] of the same compound?
A: Its T/C is 163%.
